Results as given in patent publication US9290457B2, “Substituted dihydropyrimidinones and their use as inhibitors of neutrophil elastase activity” (Boehringer Ingelheim International GmbH, priority 2014, dated 2016).

Tests used:
cytochrome P450 2C9 = cytochrome P450 2C9 (Homo sapiens (Human), UniProt P11712); experiment: Cytochrome P450 2C9 inhibition; assay type: in vitro ADME; conditions: human liver microsomes, Diclofenac hydroxylation; read-out: IC50 CYP2C9 inhibition
Method: Assay for Determination of Cytochrome P450 2C9 Inhibition
(§1) All assays are carried out on a robotic system in 96 well plates. The final incubation volume contains TRIS buffer (0.1 M), MgCl2 (5 mM), human liver microsomes (0.1 mg/ml), Diclofenac (10 μM) and the test compound at five different concentrations or no compound (high control) in duplicate (e.g. highest concentration 10-50 μM with subsequent serial 1:4 dilutions). Following a short preincubation period, reactions are started with the cofactor (NADPH, 1 mM) and stopped by cooling the incubation down to 8° C. and subsequently by addition of one volume of acetonitrile. An internal standard solution—usually the stable isotope of the formed metabolite—is added after quenching of incubations. Peak area analyte (=metabolite formed) and internal standard is determined by LC-MS/MS. The resulting peak area ratio analyte to internal standard in these incubations is compared to a control activity containing no test compound.
(§2) If the inhibition of the reaction is already >50% at the lowest concentration of the test compound, the IC50 is assigned “<lowest concentration tested” (usually <0.4 μM). If the inhibition of the reaction is still <50% at the highest concentration of the test compound, the IC50 is assigned “>highest concentration tested” (usually >50 μM).

cytochrome P450 2C8 = cytochrome P450 2C8 (Homo sapiens (Human), UniProt P10632); experiment: Cytochrome P450 2C8 inhibition; assay type: in vitro ADME; conditions: human liver microsomes, Amodiaquine deethylation; read-out: IC50 CYP2C8 inhibition
Chain of cytochrome P450 2C8 (P10632 whole entry): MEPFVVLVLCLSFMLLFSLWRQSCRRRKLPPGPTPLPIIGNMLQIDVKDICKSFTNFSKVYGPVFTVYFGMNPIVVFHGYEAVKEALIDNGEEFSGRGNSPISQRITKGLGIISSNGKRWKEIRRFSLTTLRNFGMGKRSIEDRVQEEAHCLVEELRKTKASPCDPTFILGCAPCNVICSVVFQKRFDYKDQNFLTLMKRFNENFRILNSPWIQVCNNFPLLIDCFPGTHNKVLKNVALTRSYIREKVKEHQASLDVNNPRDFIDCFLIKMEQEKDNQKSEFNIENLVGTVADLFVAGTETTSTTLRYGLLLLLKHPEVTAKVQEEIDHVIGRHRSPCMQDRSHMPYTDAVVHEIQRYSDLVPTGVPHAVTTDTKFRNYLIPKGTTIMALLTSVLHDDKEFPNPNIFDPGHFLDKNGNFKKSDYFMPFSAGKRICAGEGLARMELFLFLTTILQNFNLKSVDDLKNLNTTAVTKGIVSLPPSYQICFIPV
Method: Assay for Determination of Cytochrome P450 2C8 Inhibition
as §1, with “microsomes (0.05” for “microsomes (0.1”, “mg/ml), Amodiaquine (1” for “mg/ml), Diclofenac (10”
as §2

[1] = biological target: hERG (human ether-a-go-go-related gene) potassium channel (Homo sapiens (Human), UniProt Q12809); experiment: hERG inhibition patch clamp assay; assay type: cell-based
Chain of hERG (human ether-a-go-go-related gene) potassium channel (Q12809 whole entry): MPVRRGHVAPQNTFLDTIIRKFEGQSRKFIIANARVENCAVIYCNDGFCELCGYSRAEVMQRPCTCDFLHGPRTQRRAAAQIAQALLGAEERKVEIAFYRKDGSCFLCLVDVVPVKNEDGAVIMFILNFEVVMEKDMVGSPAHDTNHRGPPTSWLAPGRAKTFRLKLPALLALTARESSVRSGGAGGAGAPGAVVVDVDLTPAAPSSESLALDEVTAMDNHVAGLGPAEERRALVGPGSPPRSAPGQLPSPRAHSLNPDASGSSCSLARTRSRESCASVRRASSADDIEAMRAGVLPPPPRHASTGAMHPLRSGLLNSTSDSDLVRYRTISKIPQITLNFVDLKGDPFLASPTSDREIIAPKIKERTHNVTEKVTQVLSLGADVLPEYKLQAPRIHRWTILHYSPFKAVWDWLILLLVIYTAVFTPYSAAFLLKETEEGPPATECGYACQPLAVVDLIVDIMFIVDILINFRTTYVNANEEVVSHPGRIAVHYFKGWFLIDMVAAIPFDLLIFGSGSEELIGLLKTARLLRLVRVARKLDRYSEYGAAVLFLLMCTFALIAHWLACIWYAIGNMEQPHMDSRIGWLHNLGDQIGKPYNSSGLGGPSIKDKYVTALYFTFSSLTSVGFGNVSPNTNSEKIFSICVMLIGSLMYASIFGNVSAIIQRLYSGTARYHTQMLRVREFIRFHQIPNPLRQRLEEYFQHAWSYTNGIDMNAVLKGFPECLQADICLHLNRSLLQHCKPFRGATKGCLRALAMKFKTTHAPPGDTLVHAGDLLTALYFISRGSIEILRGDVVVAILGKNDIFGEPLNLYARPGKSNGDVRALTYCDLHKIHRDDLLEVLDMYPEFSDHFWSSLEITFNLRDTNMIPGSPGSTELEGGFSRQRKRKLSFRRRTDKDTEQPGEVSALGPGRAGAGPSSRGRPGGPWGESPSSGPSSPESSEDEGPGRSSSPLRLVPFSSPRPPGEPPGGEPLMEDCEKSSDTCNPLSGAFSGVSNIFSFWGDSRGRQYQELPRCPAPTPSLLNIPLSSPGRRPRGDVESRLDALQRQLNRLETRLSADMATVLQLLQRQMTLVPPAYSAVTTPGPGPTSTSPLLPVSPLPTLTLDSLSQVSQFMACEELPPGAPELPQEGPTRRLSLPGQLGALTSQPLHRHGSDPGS
Text: (§3) Calculations: Fold induction=(Enzyme mRNA Compound)/(Enzyme mRNA Solvent Control) Inducer Potency=(Fold Compound)/(Fold Rifampicin)*100 Assay for Determination of hERG Inhibition
(§4) The inhibition of the hERG (human ether-a-go-go-related gene) potassium channel can be determined as described in Rast, G., & Guth, B. D., Journal of Pharmacological and Toxicological Methods (2014), http://dx.doi.org/10.1016/j.vasen.2014.08.001.

hERG potassium channel = hERG potassium channel (Homo sapiens (Human), UniProt Q12809); experiment: hERG inhibition patch clamp assay; assay type: cell-based; conditions: human, @ 10 μM
Chain of hERG potassium channel (Q12809 whole entry): as above
Text: as §3, §4

Chain of cytochrome P450 2C9 (P11712 whole entry): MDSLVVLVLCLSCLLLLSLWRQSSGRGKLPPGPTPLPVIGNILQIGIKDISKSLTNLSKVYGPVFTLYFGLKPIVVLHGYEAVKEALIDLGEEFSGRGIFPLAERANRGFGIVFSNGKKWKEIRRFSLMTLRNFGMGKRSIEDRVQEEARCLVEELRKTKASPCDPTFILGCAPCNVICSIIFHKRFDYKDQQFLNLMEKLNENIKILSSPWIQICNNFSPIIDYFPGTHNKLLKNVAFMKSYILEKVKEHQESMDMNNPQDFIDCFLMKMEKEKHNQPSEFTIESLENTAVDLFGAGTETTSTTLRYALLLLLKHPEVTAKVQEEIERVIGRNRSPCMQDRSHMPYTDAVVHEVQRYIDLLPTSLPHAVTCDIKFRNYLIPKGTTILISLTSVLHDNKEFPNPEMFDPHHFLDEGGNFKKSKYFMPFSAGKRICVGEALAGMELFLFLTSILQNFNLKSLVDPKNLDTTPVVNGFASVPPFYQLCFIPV

Structure (SMILES)	IC50 (cytochrome P450 2C9) [µM]	IC50 (cytochrome P450 2C8) [µM]	IC50 [1] [µM]	hERG inhibition ([1]; @ 10 μM)	inhibition at 10 µM (hERG potassium channel) [%]
CNC(=O)c1cc(C#N)ccc1[C@@H]1C(C(C)=O)=C(C)N(c2cccc(C(F)(F)F)c2)C(=O)N1C [Example 13.1]	> 50	> 50	> 30	(7% @ 10 μM)	–
CC(=O)C1=C(C)N(c2cccc(C(F)(F)F)c2)C(=O)N(C)[C@@H]1c1ccc(C#N)cc1-c1ccc(=O)n(C)c1 [Example 16, 4-[(R)-5-Acetyl-3,6-dimethyl-2-oxo-1-(3-trifluoromethyl-phenyl)-1,2,3,4-tetrahydro-pyrimidin-4-yl]-3-(1-methyl-6-oxo-1,6-dihydro-pyridin-3-yl)-benzonitrile]	> 50	> 50	> 30	–	8
